Experimental data taken from ChEMBL document CHEMBL1146198, “In vitro studies with DQ-113 and comparison fluoroquinolones to determine propensities to select resistance in gram-positive cocci” (2007).
Values after ≈ are worked out from the molar mass of the structure shown.

tested on: Streptococcus pneumoniae; assay: Effect on 2 ug/ml moxifloxacin-selected penicillin-resistant Streptococcus pneumoniae 218 mutant after five passages assessed as susceptibility by agar dilution method; assay type: functional

Row | Compound | MIC [µg/mL]
1 | O=C(O)c1cn(C2CC2)c2cc(N3CCNCC3)c(F)cc2c1=O [CIPROFLOXACIN] | 128

tested on: Streptococcus pneumoniae; assay: Susceptibility of penicillin-resistant Streptococcus pneumoniae 335 by agar dilution method; assay type: functional

Row | Compound | MIC [µg/mL]
2 | O=C(O)c1cn(C2CC2)c2cc(N3CCNCC3)c(F)cc2c1=O [CIPROFLOXACIN] | 1 (≈ 3.02 µM)

tested on: Streptococcus pneumoniae; assay: Effect on 0.06 ug/ml DQ113-selected penicillin-resistant Streptococcus pneumoniae 335 mutant after five passages assessed as susceptibility by agar dilution method; assay type: functional

Row | Compound | MIC [µg/mL]
3 | O=C(O)c1cn(C2CC2)c2cc(N3CCNCC3)c(F)cc2c1=O [CIPROFLOXACIN] | 4 (≈ 12.1 µM)

tested on: Streptococcus pneumoniae; assay: Effect on 0.5 ug/ml […]-selected penicillin-resistant Streptococcus pneumoniae 335 mutant after five passages assessed as susceptibility by agar dilution method; assay type: functional

Row | Compound | MIC [µg/mL]
4 | O=C(O)c1cn(C2CC2)c2cc(N3CCNCC3)c(F)cc2c1=O [CIPROFLOXACIN] | 16

tested on: Streptococcus pneumoniae; assay: Effect on 1 ug/ml moxifloxacin-selected penicillin-resistant Streptococcus pneumoniae 335 mutant after five passages assessed as susceptibility by agar dilution method; assay type: functional

Row | Compound | MIC [µg/mL]
5 | O=C(O)c1cn(C2CC2)c2cc(N3CCNCC3)c(F)cc2c1=O [CIPROFLOXACIN] | 4

tested on: Streptococcus pneumoniae; assay: Effect on 0.06 ug/ml DQ113-selected penicillin-resistant Streptococcus pneumoniae 334 mutant after five passages assessed as susceptibility by agar dilution method; assay type: functional

Row | Compound | MIC [µg/mL]
6 | O=C(O)c1cn(C2CC2)c2cc(N3CCNCC3)c(F)cc2c1=O [CIPROFLOXACIN] | 8 (≈ 24.1 µM)

tested on: Streptococcus pneumoniae; assay: Effect on 8 ug/ml ciprofloxacin-selected penicillin-resistant Streptococcus pneumoniae 216 mutant after five passages assessed as susceptibility by agar dilution method; assay type: functional

Row | Compound | MIC [µg/mL]
7 | O=C(O)c1cn(C2CC2)c2cc(N3CCNCC3)c(F)cc2c1=O [CIPROFLOXACIN] | 32

tested on: Streptococcus pneumoniae; assay: Susceptibility of penicillin-resistant Streptococcus pneumoniae 218 by agar dilution method; assay type: functional

Row | Compound | MIC [µg/mL]
8 | O=C(O)c1cn(C2CC2)c2cc(N3CCNCC3)c(F)cc2c1=O [CIPROFLOXACIN] | 1 (≈ 3.02 µM)

tested on: Streptococcus pneumoniae; assay: Effect on 0.06 ug/ml DQ113-selected penicillin-resistant Streptococcus pneumoniae 218 mutant after five passages assessed as susceptibility by agar dilution method; assay type: functional

Row | Compound | MIC [µg/mL]
9 | O=C(O)c1cn(C2CC2)c2cc(N3CCNCC3)c(F)cc2c1=O [CIPROFLOXACIN] | 8 (≈ 24.1 µM)

tested on: Streptococcus pneumoniae; assay: Effect on 0.5 ug/ml sitafloxacin-selected penicillin-resistant Streptococcus pneumoniae 218 mutant after five passages assessed as susceptibility by agar dilution method; assay type: functional

Row | Compound | MIC [µg/mL]
10 | O=C(O)c1cn(C2CC2)c2cc(N3CCNCC3)c(F)cc2c1=O [CIPROFLOXACIN] | 16

tested on: Streptococcus pneumoniae; assay: Effect on 16 ug/ml levofloxacin-selected penicillin-resistant Streptococcus pneumoniae 218 mutant after five passages assessed as susceptibility by agar dilution method; assay type: functional

Row | Compound | MIC [µg/mL]
11 | O=C(O)c1cn(C2CC2)c2cc(N3CCNCC3)c(F)cc2c1=O [CIPROFLOXACIN] | 8

tested on: Streptococcus pneumoniae; assay: Effect on 16 ug/ml ciprofloxacin-selected penicillin-resistant Streptococcus pneumoniae 218 mutant after five passages assessed as susceptibility by agar dilution method; assay type: functional

Row | Compound | MIC [µg/mL]
12 | O=C(O)c1cn(C2CC2)c2cc(N3CCNCC3)c(F)cc2c1=O [CIPROFLOXACIN] | 128

tested on: Enterococcus; assay: Susceptibility of vancomycin-resistant Enterococcus species single-step mutant by agar dilution method; assay type: functional

Row | Compound | MIC [µg/mL]
13 | O=C(O)c1cn(C2CC2)c2cc(N3CCNCC3)c(F)cc2c1=O [CIPROFLOXACIN] | 16 (≈ 48.3 µM)

tested on: Streptococcus pneumoniae; assay: Effect on 16 ug/ml levofloxacin-selected penicillin-resistant Streptococcus pneumoniae 335 mutant after five passages assessed as susceptibility by agar dilution method; assay type: functional

Row | Compound | MIC [µg/mL]
14 | O=C(O)c1cn(C2CC2)c2cc(N3CCNCC3)c(F)cc2c1=O [CIPROFLOXACIN] | 128

tested on: Streptococcus pneumoniae; assay: Effect on 16 ug/ml ciprofloxacin-selected penicillin-resistant Streptococcus pneumoniae 335 mutant after five passages assessed as susceptibility by agar dilution method; assay type: functional

Row | Compound | MIC [µg/mL]
15 | O=C(O)c1cn(C2CC2)c2cc(N3CCNCC3)c(F)cc2c1=O [CIPROFLOXACIN] | 16

tested on: Streptococcus pneumoniae; assay: Susceptibility of penicillin-resistant Streptococcus pneumoniae 334 by agar dilution method; assay type: functional

Row | Compound | MIC [µg/mL]
16 | O=C(O)c1cn(C2CC2)c2cc(N3CCNCC3)c(F)cc2c1=O [CIPROFLOXACIN] | 1 (≈ 3.02 µM)

tested on: Streptococcus pneumoniae; assay: Effect on 0.5 ug/ml sitafloxacin-selected penicillin-resistant Streptococcus pneumoniae 334 mutant after five passages assessed as susceptibility by agar dilution method; assay type: functional

Row | Compound | MIC [µg/mL]
17 | O=C(O)c1cn(C2CC2)c2cc(N3CCNCC3)c(F)cc2c1=O [CIPROFLOXACIN] | 64

tested on: Streptococcus pneumoniae; assay: Effect on 1 ug/ml moxifloxacin-selected penicillin-resistant Streptococcus pneumoniae 334 mutant after five passages assessed as susceptibility by agar dilution method; assay type: functional

Row | Compound | MIC [µg/mL]
18 | O=C(O)c1cn(C2CC2)c2cc(N3CCNCC3)c(F)cc2c1=O [CIPROFLOXACIN] | 8

tested on: Streptococcus pneumoniae; assay: Effect on 4 ug/ml levofloxacin-selected penicillin-resistant Streptococcus pneumoniae 334 mutant after five passages assessed as susceptibility by agar dilution method; assay type: functional

Row | Compound | MIC [µg/mL]
19 | O=C(O)c1cn(C2CC2)c2cc(N3CCNCC3)c(F)cc2c1=O [CIPROFLOXACIN] | 32

tested on: Streptococcus pneumoniae; assay: Effect on 32 ug/ml ciprofloxacin-selected penicillin-resistant Streptococcus pneumoniae 334 mutant after five passages assessed as susceptibility by agar dilution method; assay type: functional

Row | Compound | MIC [µg/mL]
20 | O=C(O)c1cn(C2CC2)c2cc(N3CCNCC3)c(F)cc2c1=O [CIPROFLOXACIN] | 32

tested on: Streptococcus pneumoniae; assay: Effect on 0.06 ug/ml DQ113-selected penicillin-resistant Streptococcus pneumoniae 216 mutant after five passages assessed as susceptibility by agar dilution method; assay type: functional

Row | Compound | MIC [µg/mL]
21 | O=C(O)c1cn(C2CC2)c2cc(N3CCNCC3)c(F)cc2c1=O [CIPROFLOXACIN] | 16 (≈ 48.3 µM)

tested on: Streptococcus pneumoniae; assay: (§1) Effect on 0.5 ug/ml sitafloxacin-selected penicillin-resistant Streptococcus pneumoniae 216 mutant after five passages assessed as susceptibility by agar dilution method; assay type: functional

Row | Compound | MIC [µg/mL]
22 | O=C(O)c1cn(C2CC2)c2cc(N3CCNCC3)c(F)cc2c1=O [CIPROFLOXACIN] | 32

tested on: Streptococcus pneumoniae; assay: Effect on 2 ug/ml moxifloxacin-selected penicillin-resistant Streptococcus pneumoniae 216 mutant after five passages assessed as susceptibility by agar dilution method; assay type: functional

Row | Compound | MIC [µg/mL]
23 | O=C(O)c1cn(C2CC2)c2cc(N3CCNCC3)c(F)cc2c1=O [CIPROFLOXACIN] | 128

tested on: Streptococcus pneumoniae; assay: (§2) Effect on 4 ug/ml levofloxacin-selected penicillin-resistant Streptococcus pneumoniae 216 mutant after five passages assessed as susceptibility by agar dilution method; assay type: functional

Row | Compound | MIC [µg/mL]
24 | O=C(O)c1cn(C2CC2)c2cc(N3CCNCC3)c(F)cc2c1=O [CIPROFLOXACIN] | 16

tested on: Streptococcus pneumoniae; assay: Effect on 32 ug/ml ciprofloxacin-selected penicillin-resistant Streptococcus pneumoniae 216 mutant after five passages assessed as susceptibility by agar dilution method; assay type: functional

Row | Compound | MIC [µg/mL]
25 | O=C(O)c1cn(C2CC2)c2cc(N3CCNCC3)c(F)cc2c1=O [CIPROFLOXACIN] | 32

tested on: Streptococcus pneumoniae; assay: Susceptibility of penicillin-resistant Streptococcus pneumoniae 217 by agar dilution method; assay type: functional

Row | Compound | MIC [µg/mL]
26 | O=C(O)c1cn(C2CC2)c2cc(N3CCNCC3)c(F)cc2c1=O [CIPROFLOXACIN] | 1 (≈ 3.02 µM)

tested on: Streptococcus pneumoniae; assay: Effect on 0.03 ug/ml DQ113-selected penicillin-resistant Streptococcus pneumoniae 216 mutant after five passages assessed as susceptibility by agar dilution method; assay type: functional

Row | Compound | MIC [µg/mL]
27 | O=C(O)c1cn(C2CC2)c2cc(N3CCNCC3)c(F)cc2c1=O [CIPROFLOXACIN] | 4 (≈ 12.1 µM)

tested on: Streptococcus pneumoniae; assay: as §1; assay type: functional

Row | Compound | MIC [µg/mL]
28 | O=C(O)c1cn(C2CC2)c2cc(N3CCNCC3)c(F)cc2c1=O [CIPROFLOXACIN] | 32

tested on: Streptococcus pneumoniae; assay: Effect on 0.5 ug/ml moxifloxacin-selected penicillin-resistant Streptococcus pneumoniae 216 mutant after five passages assessed as susceptibility by agar dilution method; assay type: functional

Row | Compound | MIC [µg/mL]
29 | O=C(O)c1cn(C2CC2)c2cc(N3CCNCC3)c(F)cc2c1=O [CIPROFLOXACIN] | 4

tested on: Streptococcus pneumoniae; assay: as §2; assay type: functional

Row | Compound | MIC [µg/mL]
30 | O=C(O)c1cn(C2CC2)c2cc(N3CCNCC3)c(F)cc2c1=O [CIPROFLOXACIN] | 4
